# Laboratory results: publication PMC3575848 (Nucleic Acids Research, 2012)
# Assays:
# Type in all cases: binding
# HsaDRS2 [1] = target: T1, HsaDRS2 (Homo sapiens, UniProt Q6PI48); experiment: thermal shift by dynamic light scattering and differential scanning fluorimetry; settings: protein 3 mg/ml, temperature gradient
# T1 sequence (Q6PI48 41-645): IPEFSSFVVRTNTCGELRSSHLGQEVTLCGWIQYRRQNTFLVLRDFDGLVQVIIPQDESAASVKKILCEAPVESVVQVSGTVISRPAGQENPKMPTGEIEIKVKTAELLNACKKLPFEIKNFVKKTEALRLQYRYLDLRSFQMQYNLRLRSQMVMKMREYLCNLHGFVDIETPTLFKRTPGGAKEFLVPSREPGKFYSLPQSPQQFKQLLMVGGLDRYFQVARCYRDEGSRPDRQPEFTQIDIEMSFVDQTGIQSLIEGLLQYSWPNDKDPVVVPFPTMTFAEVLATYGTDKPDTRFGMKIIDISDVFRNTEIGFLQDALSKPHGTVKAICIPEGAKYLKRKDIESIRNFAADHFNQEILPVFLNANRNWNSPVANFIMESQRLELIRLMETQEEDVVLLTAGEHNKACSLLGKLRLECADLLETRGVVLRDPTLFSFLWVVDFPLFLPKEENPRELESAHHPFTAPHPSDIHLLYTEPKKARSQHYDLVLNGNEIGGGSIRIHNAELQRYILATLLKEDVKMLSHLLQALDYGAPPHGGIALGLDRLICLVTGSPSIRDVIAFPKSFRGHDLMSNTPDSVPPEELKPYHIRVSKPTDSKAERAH
# HsaDRS2 [2] = target: T1, HsaDRS2; experiment: isothermal titration calorimetry
# EcoDRS [3] = target: T2, EcoDRS (Escherichia coli, UniProt P21889); experiment: thermal shift by dynamic light scattering; settings: protein 3 mg/ml, temperature gradient
# T2 sequence (P21889 whole entry): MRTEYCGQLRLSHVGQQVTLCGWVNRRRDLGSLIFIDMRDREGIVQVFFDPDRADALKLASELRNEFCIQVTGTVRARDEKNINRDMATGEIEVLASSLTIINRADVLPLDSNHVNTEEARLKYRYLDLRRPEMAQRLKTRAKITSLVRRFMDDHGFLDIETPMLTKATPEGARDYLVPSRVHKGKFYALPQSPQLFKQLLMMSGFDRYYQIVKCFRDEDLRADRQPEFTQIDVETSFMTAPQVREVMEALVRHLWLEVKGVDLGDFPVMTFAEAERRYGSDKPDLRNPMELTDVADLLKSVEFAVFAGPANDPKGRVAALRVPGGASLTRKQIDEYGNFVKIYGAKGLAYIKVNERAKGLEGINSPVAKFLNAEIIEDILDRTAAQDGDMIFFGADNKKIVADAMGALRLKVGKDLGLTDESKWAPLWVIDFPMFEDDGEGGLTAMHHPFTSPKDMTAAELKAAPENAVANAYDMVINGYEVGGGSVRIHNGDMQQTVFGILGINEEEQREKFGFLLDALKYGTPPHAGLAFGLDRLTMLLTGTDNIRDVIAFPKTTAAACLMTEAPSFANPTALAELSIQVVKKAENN
# EcoDRS [4] = target: T2, EcoDRS; experiment: isothermal titration calorimetry
smiles,measurement,setting,value
"Nc1ncnc2c1ncn2[C@@H]1O[C@H](COS(=O)(=O)NC(=O)[C@@H](N)CC(=O)O)[C@@H](O)[C@H]1O [Asp–AMS, 5′-O-[N-(L-aspartyl)sulfamoyl] adenosine]",Tm,HsaDRS2 [1],Significant stabilization was observed in the presence of Asp–AMS
same,Kd,HsaDRS2 [2],17.5 ± 12 nM
same,Tm,EcoDRS [3],only Asp–AMS (dashed grey line) influences the thermostability of the two enzymes positively
same,Kd,EcoDRS [4],2.95 ± 1.34 nM
